Laboratory results as given in patent US20080280996A1, “Use of Carophyllenes in the Manufacture of Medicaments and Treatment of Bodily Conditions of Inflammation and Inflammatory Pain” (priority 2004, published 2008).

Tests used:
Type in all cases: in vivo
[1] = tested on: histamine-induced oedema; experiment: Histamine oedema in mouse paw; conditions: mice, histamine 100 nmol/paw intraplantar; 50 mg/kg orally 1 h before; 10 min to 48 h
Experimental: The test used below is described by Cunha et. al. in the publication Life Sci. 70:159-169, 2001. Male 25 g-35 g mice were slightly sedated with ether and were injected 50 μl saline containing histamine (100 nmol/paw), intraplantar, in the right paw. The left paw received the same volume of saline and was taken as negative control. The swelling was measured with a plethysmometer (manufacturer: Ugo Basile, Italy) along various time intervals after the injection of the phlogistic agent. The difference between the volumes of the right and the left paw were quantified (in ml) and taken as an index of oedema. One hour before the test the animals were systemically treated (orally) with 50 mg/kg of alpha-humulene. Graph 4 below compares the inhibition of the volume of the oedema by administration of alpha-humulene. Oedema volume measurement time intervals were 10, 20, 30, 60, and 120 min, 24 h and 48 h. Each point represents the average of 5 animals, and the vertical bars the mean standard deviation.

[2] = tested on: IL-1β; experiment: Levels of pro-inflammatory cytokine IL-1β in carrageenin-injected rat paw (Elisa); conditions: 50 mg/kg orally 60 minutes before carrageenin 300 μg/paw, tissue after 180 minutes
Experimental: The test used below is described by Campos et. al. in the publication Br. J. Pharmacol. 135: 1107-1114, 2002, with minor modifications. Male 160-180 g rats were orally given 50 mg/kg of alpha-humulene. Animals treated with 0.9% (0.1 ml/10 g) saline were used as control. Another group of animals was treated with 0.5 mg/kg dexamethasone, subcutaneously, 4 hours before the test, and used as positive control. After 60 minutes, the animals received intraplantar injections of 100 μl of carrageenin (300 μg/paw) and were sacrificed after 180 minutes. Control animals received saline. The subcutaneous tissue of the injected paws was removed and put in a phosphate buffer containing 0.5% tween 20, 0.1 mM benzametonium chloride, 10 mM EDTA, 2 μg/m aprotinin, 0.1 mM PMSF (phenyl methyl sulfonyl fluoride) and 0.5% BSA (bovine serum albumin). The tissues were homogenized and centrifuged at 3000 g, for 10 min, at −4° C. The supernatant was used in the test. The levels of IL-1β were measures with an Elisa kit, according to the manufacturer's instructions (R & D Systems®, USA). The tests were performed in duplicate, and repeated three times. The answers are expressed in pg/mg of tissue. […]

[3] = tested on: iNOS; experiment: Expression of enzyme iNOS in carrageenin-injected rat paw (Western blot); conditions: 50 mg/kg orally 60 minutes before carrageenin 300 μg/paw, subcutaneous paw tissue
Experimental: Animals treated with 0.9% (0.1 ml/10 g) saline were used as control. Another group of animals was treated with 0.5 mg/kg dexamethasone, subcutaneously, 4 hours before the test, and used as positive control. After 60 minutes, the animals received intraplantar injections of 100 μl of carrageenin (300 μg/paw) and were sacrificed after 180 minutes, and subcutaneous paw tissue was removed 240 minutes after the carrageenin injection. The collected tissue was immediately frozen in liquid nitrogen and re-suspended in a buffer of hypotonic lysis (10 mM HEPES N-2-hydroxyethylpiperazine-N'-2-ethanesulfonic acid, 1.5 mM MgCl2, 10 mM KCl, 0.5 mM PMSF phenylmethylsulphonyl fluoride, 1.5 μg/ml trypsin inhibitor, 7 μg/ml pepstatin A, 5 μg/ml leupeptin, 0.1 mM benzamidine 0.1 mM and 0.5 mM dithiothreitol) and homogenized. The homogenate was divided in three 2 ml aliquots, cooled in ice for 15 minutes, vigorously agitated and once again cooled in ice, in the presence of 20 μl 10% non-ionic detergent Nonidet P-40 (Roche Diagnostics, USA). […] The protein concentration was determined by the Bradford method (BioRad Laboratories Inc. kit, Milan, Italy). […] The bands thus obtained were quantified using a chemoluminescence kit and densitometry analysis (relative units) in radiographic films.

## C/C1=C\CC/C(C)=C/CC(C)(C)/C=C/C1 [alpha-humulene]
[1]
  histamine-induced oedema formation: significantly reduced histamine-induced oedema formation
[2]
  production of pro-inflammatory cytokine IL-1β induced by carrageenin in the paws of rats: markedly inhibited the production
[3]
  expression of enzymes iNOS induced by carrageenin in the paws of rats: markedly inhibited the expression
